Source: PubChem BioAssay (NCI)
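96-well plates; 48 h exposure; 5 concentrations. Endpoints by linear interpolation between flanking doses. Not reached: highest tested concentration assigned. The concentration for full growth arrest is given as TGI.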

Assays:
Test in all cases: NCI-60 cell line screen, 48 h
SN12C renal = system: SN12C renal
HT29 colon = system: HT29 colon
KM12 colon = system: KM12 colon
SNB-19 CNS = system: SNB-19 CNS
SF-268 CNS = system: SF-268 CNS
K-562 leukemia = system: K-562 leukemia
LOX IMVI melanoma = system: LOX IMVI melanoma
HCT-116 colon = system: HCT-116 colon
SK-MEL-5 melanoma = system: SK-MEL-5 melanoma
UACC-62 melanoma = system: UACC-62 melanoma
TK-10 renal = system: TK-10 renal
MCF7 breast = system: MCF7 breast
SW-620 colon = system: SW-620 colon
A549 NSCLC = system: A549 NSCLC
OVCAR-8 ovarian = system: OVCAR-8 ovarian
COLO 205 colon = system: COLO 205 colon
NCI/ADR-RES ovarian = system: NCI/ADR-RES ovarian
UACC-257 melanoma = system: UACC-257 melanoma
SNB-75 CNS = system: SNB-75 CNS
786-0 renal = system: 786-0 renal
HL-60(TB) leukemia = system: HL-60(TB) leukemia
A498 renal = system: A498 renal
SK-OV-3 ovarian = system: SK-OV-3 ovarian
U251 CNS = system: U251 CNS
M14 melanoma = system: M14 melanoma
OVCAR-5 ovarian = system: OVCAR-5 ovarian
ACHN renal = system: ACHN renal
MOLT-4 leukemia = system: MOLT-4 leukemia
NCI-H23 lung = system: NCI-H23 lung
MDA-MB-231 breast = system: MDA-MB-231 breast
MDA-N = system: MDA-N
SR leukemia = system: SR leukemia
UO-31 renal = system: UO-31 renal
SK-MEL-28 melanoma = system: SK-MEL-28 melanoma
EKVX NSCLC = system: EKVX NSCLC
HCT-15 colon = system: HCT-15 colon
HOP-62 NSCLC = system: HOP-62 NSCLC
DU-145 prostate = system: DU-145 prostate
NCI-H460 lung = system: NCI-H460 lung
RXF 393 renal = system: RXF 393 renal
OVCAR-3 ovarian = system: OVCAR-3 ovarian
SK-MEL-2 melanoma = system: SK-MEL-2 melanoma
IGROV1 ovarian = system: IGROV1 ovarian
MDA-MB-435 = system: MDA-MB-435
T-47D breast = system: T-47D breast
SF-539 CNS = system: SF-539 CNS
PC-3 prostate = system: PC-3 prostate
OVCAR-4 ovarian = system: OVCAR-4 ovarian
HS 578T breast = system: HS 578T breast
CAKI-1 renal = system: CAKI-1 renal
BT-549 breast = system: BT-549 breast
NCI-H522 lung = system: NCI-H522 lung
MALME-3M melanoma = system: MALME-3M melanoma
SF-295 CNS = system: SF-295 CNS
NCI-H226 lung = system: NCI-H226 lung
HOP-92 NSCLC = system: HOP-92 NSCLC
CCRF-CEM leukemia = system: CCRF-CEM leukemia

COc1nc(C#CC(C)(C)C)nc(OC)n1 was tested, and the TGI (SN12C renal) was 79 µM, the TGI (HT29 colon) was greater than 100 µM and the TGI (KM12 colon) was 40 µM. It also gave a TGI (SNB-19 CNS) greater than 100 µM, a TGI (SF-268 CNS) of 78.6 µM and a TGI (K-562 leukemia) greater than 100 µM. For the same molecule, the TGI (LOX IMVI melanoma) was 61.4 µM, the TGI (HCT-116 colon) was greater than 100 µM and the TGI (SK-MEL-5 melanoma) was 39 µM. For the same molecule, the TGI (UACC-62 melanoma) was 42 µM, the TGI (TK-10 renal) was 57.8 µM and the TGI (MCF7 breast) was 89.5 µM. The TGI (SW-620 colon) was 73.3 µM, the TGI (A549 NSCLC) was greater than 100 µM and the TGI (OVCAR-8 ovarian) was 37.6 µM. For the same molecule, the TGI (COLO 205 colon) was greater than 100 µM, the TGI (NCI/ADR-RES ovarian) was 46.1 µM and the TGI (UACC-257 melanoma) was greater than 100 µM. It also gave a TGI (SNB-75 CNS) greater than 100 µM, a TGI (786-0 renal) greater than 100 µM and a TGI (HL-60(TB) leukemia) greater than 100 µM. The TGI (A498 renal) was greater than 100 µM, the TGI (SK-OV-3 ovarian) was greater than 100 µM and the TGI (U251 CNS) was greater than 100 µM. For the same molecule, the TGI (M14 melanoma) was greater than 100 µM, the TGI (OVCAR-5 ovarian) was 42.5 µM and the TGI (ACHN renal) was greater than 100 µM. For the same molecule, the TGI (MOLT-4 leukemia) was greater than 100 µM, the TGI (NCI-H23 lung) was 68.5 µM and the TGI (MDA-MB-231 breast) was 59.8 µM. The TGI (MDA-N) was greater than 100 µM, the TGI (SR leukemia) was 79.3 µM and the TGI (UO-31 renal) was greater than 100 µM. For the same molecule, the TGI (SK-MEL-28 melanoma) was greater than 100 µM, the TGI (EKVX NSCLC) was greater than 100 µM and the TGI (HCT-15 colon) was 61.5 µM. It also gave a TGI (HOP-62 NSCLC) greater than 100 µM, a TGI (DU-145 prostate) of 68.3 µM and a TGI (NCI-H460 lung) greater than 100 µM. The TGI (RXF 393 renal) was greater than 100 µM, the TGI (OVCAR-3 ovarian) was 77.3 µM and the TGI (SK-MEL-2 melanoma) was greater than 100 µM. For the same molecule, the TGI (IGROV1 ovarian) was greater than 100 µM, the TGI (MDA-MB-435) was 84.5 µM and the TGI (T-47D breast) was greater than 100 µM. For the same molecule, the TGI (SF-539 CNS) was 83.1 µM, the TGI (PC-3 prostate) was greater than 100 µM and the TGI (OVCAR-4 ovarian) was 35.5 µM. The TGI (HS 578T breast) was 91.8 µM, the TGI (CAKI-1 renal) was 51.9 µM and the TGI (BT-549 breast) was greater than 100 µM. For the same molecule, the TGI (NCI-H522 lung) was 49.3 µM, the TGI (MALME-3M melanoma) was 46.9 µM and the TGI (SF-295 CNS) was greater than 100 µM.
In the case of COc1ccc(NC(=S)NC(=O)c2ccc3c(c2)Sc2ccccc2O3)c([N+](=O)[O-])c1, the TGI (SN12C renal) is reported as greater than 100 µM, the TGI (HT29 colon) is reported as greater than 100 µM and the TGI (KM12 colon) is reported as greater than 100 µM. For the same molecule, the TGI (SNB-19 CNS) was 83.6 µM, the TGI (SF-268 CNS) was 45.7 µM and the TGI (NCI-H226 lung) was greater than 100 µM. For the same molecule, the TGI (K-562 leukemia) was greater than 100 µM, the TGI (LOX IMVI melanoma) was greater than 100 µM and the TGI (HCT-116 colon) was greater than 100 µM. It also gave a TGI (SK-MEL-5 melanoma) greater than 100 µM, a TGI (UACC-62 melanoma) greater than 100 µM and a TGI (TK-10 renal) of 36.9 µM. The TGI (MCF7 breast) was greater than 100 µM, the TGI (A549 NSCLC) was greater than 100 µM and the TGI (OVCAR-8 ovarian) was greater than 100 µM. It also gave a TGI (COLO 205 colon) greater than 100 µM, a TGI (NCI/ADR-RES ovarian) greater than 100 µM and a TGI (UACC-257 melanoma) greater than 100 µM. It also gave a TGI (SNB-75 CNS) of 23.7 µM, a TGI (786-0 renal) of 56.5 µM and a TGI (HL-60(TB) leukemia) of 82.1 µM. For the same molecule, the TGI (A498 renal) was 38.2 µM, the TGI (SK-OV-3 ovarian) was 98.3 µM and the TGI (U251 CNS) was 60.6 µM. For the same molecule, the TGI (M14 melanoma) was greater than 100 µM, the TGI (HOP-92 NSCLC) was 44.9 µM and the TGI (OVCAR-5 ovarian) was greater than 100 µM. The TGI (ACHN renal) was 64.8 µM, the TGI (MOLT-4 leukemia) was greater than 100 µM and the TGI (NCI-H23 lung) was greater than 100 µM. For the same molecule, the TGI (MDA-MB-231 breast) was 62.8 µM, the TGI (MDA-N) was greater than 100 µM and the TGI (SR leukemia) was greater than 100 µM. It also gave a TGI (UO-31 renal) of 57.4 µM, a TGI (SK-MEL-28 melanoma) greater than 100 µM and a TGI (HCT-15 colon) greater than 100 µM. For the same molecule, the TGI (HOP-62 NSCLC) was greater than 100 µM, the TGI (DU-145 prostate) was greater than 100 µM and the TGI (NCI-H460 lung) was greater than 100 µM. It also gave a TGI (RXF 393 renal) of 75.6 µM, a TGI (OVCAR-3 ovarian) of 58.5 µM and a TGI (SK-MEL-2 melanoma) of 96.2 µM. It also gave a TGI (IGROV1 ovarian) of 59.1 µM, a TGI (MDA-MB-435) greater than 100 µM and a TGI (T-47D breast) greater than 100 µM. The TGI (SF-539 CNS) was greater than 100 µM, the TGI (PC-3 prostate) was greater than 100 µM and the TGI (OVCAR-4 ovarian) was 91 µM. It also gave a TGI (CCRF-CEM leukemia) greater than 100 µM, a TGI (HS 578T breast) of 43.2 µM and a TGI (CAKI-1 renal) greater than 100 µM. The TGI (BT-549 breast) was 70.5 µM, the TGI (NCI-H522 lung) was 35.3 µM and the TGI (MALME-3M melanoma) was 35.7 µM. For the same molecule, the TGI (SF-295 CNS) was greater than 100 µM.
